Measurements: patent US20240018161A1, “MODULATORS OF CYSTIC FIBROSIS TRANSMEMBRANE CONDUCTANCE REGULATOR” (VERTEX PHARMACEUTICALS INCORPORATED, priority 2020, published 2024)
Read-outs that look alike come from different tables or passages of the source.

Biological target: CFTR-mediated chloride transport in human intestinal epithelial enteroid cells (Homo sapiens, UniProt P13569)
Assay: Membrane potential dye, Enteroid Assay A
Format: cell-based
Details: for EC50: read-out: Ent. A EC50
Protocol: Base medium (ADF+++) consisted of Advanced DMEM/Ham's F12, 2 mM Glutamax, 10 mM HEPES, […] penicillin/streptomycin.
Bath 1 Buffer consisted of 1 mM MgCl2, 160 mM NaCl, 4.5 mM KCl, 10 mM HEPES, 10 mM Glucose, 2 mM CaCl2.
Chloride Free Buffer consisted of 1 mM Magnesium Gluconate, 2 mM Calcium Gluconate, 4.5 mM Potassium Gluconate, 160 mM Sodium Gluconate, 10 mM HEPES, 10 mM Glucose.
Bath1 Dye Solution consisted of Bath 1 Buffer, 0.04% Pluronic F127, 20 μM Methyl Oxonol, 30 μM CaCCinh-A01, 30 μM Chicago Sky Blue.
Chloride Free Dye Solution consisted of Chloride Free Buffer, 0.04% Pluronic F127, 20 μM Methyl Oxonol, 30 μM CaCCinh-A01, 30 μM Chicago Sky Blue.
3. Enteroid Cell Harvesting and Seeding
Cells were recovered in cell recovery solution, collected by centrifugation at 650 rpm for 5 min at 4° C., resuspended in TryPLE and incubated for 5 min at 37° C. Cells were then collected by centrifugation at 650 rpm for 5 min at 4° C. and resuspended in IEMM containing 10 μM ROCK inhibitor (RI).
4. Membrane Potential Dye, Enteroid Assay A
Briefly, cells were washed 5 times in Bath 1 Buffer. Bath 1 Dye Solution was added, and the cells were incubated for 25 min at room temperature. Following dye incubation, cells were washed 3 times in Chloride Free Dye Solution. Chloride transport was initiated by addition of Chloride Free Dye Stimulation Solution and the fluorescence signal was read for 15 min. […] Chloride transport was then expressed as a percentage of the chloride transport following treatment with 3 μM N-[(6-amino-2-pyridyl)sulfonyl]-6-(3-fluoro-5-isobutoxy-phenyl)-2-[(4S)-2,2,4-trimethylpyrrolidin-1-yl]pyridine-3-carboxamide, 3 μM (R)-1-(2,2-difluorobenzo[d][1,3]dioxol-5-yl)-N-(1-(2,3-dihydroxypropyl)-6-fluoro-2-(1-hydroxy-2-methylpropan-2-yl)-1H-indol-5-yl)cyclopropanecarboxamide and 300 nM acute N-[2,4-bis(1,1-dimethylethyl)-5-hydroxyphenyl]-1,4-dihydro-4-oxoquinoline-3-carboxamide triple combination control (% Activity).

[1] = percentage of chloride transport of triple combination control (3 μM N-[(6-amino-2-pyridyl)sulfonyl]-6-(3-fluoro-5-isobutoxy-phenyl)-2-[(4S)-2,2,4-trimethylpyrrolidin-1-yl]pyridine-3-carboxamide based)

CFTR-mediated chloride transport in human intestinal epithelial enteroid cells, sequence (P13569 with tags, fused parts or gaps DEL508-508): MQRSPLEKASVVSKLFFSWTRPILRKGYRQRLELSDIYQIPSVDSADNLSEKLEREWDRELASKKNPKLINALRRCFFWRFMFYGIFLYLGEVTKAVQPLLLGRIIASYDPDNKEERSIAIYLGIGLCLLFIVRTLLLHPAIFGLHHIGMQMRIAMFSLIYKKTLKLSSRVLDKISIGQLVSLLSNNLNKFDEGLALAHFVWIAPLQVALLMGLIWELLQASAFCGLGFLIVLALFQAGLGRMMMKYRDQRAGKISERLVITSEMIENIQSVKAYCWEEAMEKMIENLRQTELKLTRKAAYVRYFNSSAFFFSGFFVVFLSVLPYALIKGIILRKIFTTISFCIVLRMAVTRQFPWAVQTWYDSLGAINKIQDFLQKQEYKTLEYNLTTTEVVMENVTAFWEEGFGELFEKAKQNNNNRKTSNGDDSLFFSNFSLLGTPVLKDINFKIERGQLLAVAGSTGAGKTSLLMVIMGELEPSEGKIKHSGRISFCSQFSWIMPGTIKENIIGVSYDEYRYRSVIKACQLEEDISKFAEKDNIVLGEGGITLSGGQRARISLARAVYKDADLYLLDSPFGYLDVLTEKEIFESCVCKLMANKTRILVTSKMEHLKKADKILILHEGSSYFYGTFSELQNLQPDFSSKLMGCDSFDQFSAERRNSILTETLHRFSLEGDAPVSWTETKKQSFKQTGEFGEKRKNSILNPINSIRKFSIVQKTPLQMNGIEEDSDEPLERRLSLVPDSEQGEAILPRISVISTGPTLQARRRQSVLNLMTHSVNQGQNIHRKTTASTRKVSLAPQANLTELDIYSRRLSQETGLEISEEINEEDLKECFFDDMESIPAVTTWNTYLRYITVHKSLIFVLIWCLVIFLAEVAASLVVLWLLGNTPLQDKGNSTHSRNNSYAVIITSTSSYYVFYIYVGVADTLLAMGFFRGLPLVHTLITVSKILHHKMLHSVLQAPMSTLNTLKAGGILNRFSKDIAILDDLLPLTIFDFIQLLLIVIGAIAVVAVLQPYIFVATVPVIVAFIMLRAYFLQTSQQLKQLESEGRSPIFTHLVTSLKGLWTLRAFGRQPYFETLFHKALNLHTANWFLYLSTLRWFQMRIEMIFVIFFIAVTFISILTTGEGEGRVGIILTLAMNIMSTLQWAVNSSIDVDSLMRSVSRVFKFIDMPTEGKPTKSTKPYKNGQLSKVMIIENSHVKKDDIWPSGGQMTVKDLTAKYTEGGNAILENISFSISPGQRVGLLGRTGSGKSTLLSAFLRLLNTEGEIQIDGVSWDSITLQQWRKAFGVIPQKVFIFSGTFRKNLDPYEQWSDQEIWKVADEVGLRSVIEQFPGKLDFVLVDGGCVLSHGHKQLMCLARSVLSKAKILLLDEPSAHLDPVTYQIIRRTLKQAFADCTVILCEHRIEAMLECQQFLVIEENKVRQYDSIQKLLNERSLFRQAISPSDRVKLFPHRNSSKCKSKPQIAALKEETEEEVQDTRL

Row | SMILES | Ent. A Max Activity (%) (Enteroid Assay A) | EC50 (Enteroid Assay A) | EC50 (enteroid cells incubated with test compound 18-24 hours, acute 10 μM forskolin and 300 nM N-[2,4-bis(1,1-dimethylethyl)-5-hydroxyphenyl]-1,4-dihydro-4-oxoquinoline-3-carboxamide) | Ent. A Max Activity (%) [1]
1 | Cc1cccc(C)c1-c1cc2nc(n1)NS(=O)(=O)c1cccc(c1)C(=O)N1CCN([C@H]3CC[C@@H](F)CC3)C[C@H](C1)O2 (single isomer, unassigned) [Compound 39] | +++ (+++ is >600%) | 1000 to 3000 nM |  | 
2 | Cc1cccc(C)c1-c1cc2nc(n1)NS(=O)(=O)c1cccc(c1)C(=O)N1CCN(Cc3ccccc3)CC(O2)C1CC(C)C (single isomer, unassigned) [Compound 88, 18-Benzyl-12-(2,6-dimethylphenyl)-21-(2-methylpropyl)-15-oxa-8λ^6-thia-1,9,11,18,22-pentaazatetracyclo[14.4.1.13,7.110,14]tricosa-3(23),4,6,10(22),11,13-hexaene-2,8,8-trione] | ++ (++ is 30-60%) | < 1000 nM |  | 
3 | Cc1cccc(C)c1-c1cc2nc(n1)NS(=O)(=O)c1cccc(c1)C(=O)N1CCN(Cc3ccccc3)CC(O2)C1CC(C)C (single isomer, unassigned) [Compound 89, 18-benzyl-12-(2,6-dimethylphenyl)-21-(2-methylpropyl)-15-oxa-8λ^6-thia-1,9,11,18,22-pentaazatetracyclo[14.4.1.13,7.110,14]tricosa-3(23),4,6,10(22),11,13-hexaene-2,8,8-trione] | +++ (+++ is >600%) | < 1000 nM |  | 
4 | Cc1cccc(C)c1-c1cc2nc(n1)NS(=O)(=O)c1cccc(c1)C(=O)N1CCN(Cc3ccccc3)CC(O2)C1CC(C)C (single isomer, unassigned) [Compound 90, 18-Benzyl-12-(2,6-dimethylphenyl)-21-(2-methylpropyl)-15-oxa-8λ^6-thia-1,9,11,18,22-pentaazatetracyclo[14.4.1.13,7.110,14]tricosa-3(23),4,6,10(22),11,13-hexaene-2,8,8-trione] | +++ (+++ is >600%) | < 1000 nM |  | 
5 | Cc1cccc(C)c1-c1cc2nc(n1)NS(=O)(=O)c1cccc(c1)C(=O)N1CCNCC(O2)C1CC(C)C (single isomer, unassigned) [Compound 91, 12-(2,6-Dimethylphenyl)-21-(2-methylpropyl)-15-oxa-8λ^6-thia-1,9,11,18,22-pentaazatetracyclo[14.4.1.13,7.110,14]tricosa-3(23),4,6,10(22),11,13-hexaene-2,8,8-trione] | +++ (+++ is >600%) | 1000 to 3000 nM |  | 
6 | Cc1cccc(C)c1-c1cc2nc(n1)NS(=O)(=O)c1cccc(c1)C(=O)N1CCN(CCC(C)(C)C)CC(O2)C1CC(C)C (single isomer, unassigned) [Compound 92, 18-(3,3-Dimethylbutyl)-12-(2,6-dimethylphenyl)-21-(2-methylpropyl)-15-oxa-8λ^6-thia-1,9,11,18,22-pentaazatetracyclo[14.4.1.13,7.110,14]tricosa-3(23),4,6,10(22),11,13-hexaene-2,8,8-trione] | +++ (+++ is >600%) | < 1000 nM |  | 
7 | Cc1cccc(C)c1-c1cc2nc(n1)NS(=O)(=O)c1cccc(c1)C(=O)N1CCN(Cc3ccccc3)CC(O2)C1CC(C)C (single isomer, unassigned) [Compound 94, 18-Benzyl-12-(2,6-dimethylphenyl)-21-(2-methylpropyl)-15-oxa-8λ^6-thia-1,9,11,18,22-pentaazatetracyclo[14.4.1.13,7.110,14]tricosa-3(23),4,6,10(22),11,13-hexaene-2,8,8-trione] | +++ (+++ is >600%) | < 1000 nM |  | 
8 | Cc1cccc(C)c1-c1cc2nc(n1)NS(=O)(=O)c1cccc(c1)C(=O)N1CCN(C(=O)OCc3ccccc3)C[C@H](O2)[C@H]1C (single isomer, unassigned) [Compound 112] | +++ (+++ is >600%) | < 1000 nM |  | 
9 | Cc1cccc(C)c1-c1cc2nc(n1)NS(=O)(=O)c1cccc(c1)C(=O)N1CCN(C(=O)OCc3ccccc3)C[C@@H](O2)[C@H]1C (single isomer, unassigned) [Compound 113] | + (+ is <30%) | 3000 to 30000 nM |  | 
10 | Cc1cccc(C)c1-c1cc2nc(n1)NS(=O)(=O)c1cccc(c1)C(=O)N1Cc3cccnc3[C@H](C1)O2 (single isomer, unassigned) [Compound 196, 12-(2,6-Dimethylphenyl)-15-oxa-8λ^6-thia-1,9,11,18,25-pentaazapentacyclo[14.7.1.13,7.110,14.017,22]hexacosa-3,5,7(26),10(25),11,13,17,19,21-nonaene-2,8,8-trione] |  |  |  | + (+ is <300%)
11 | Cc1cccc(C)c1-c1cc2nc(n1)NS(=O)(=O)c1cccc(c1)C(=O)N1CC3CCCN(C)C3[C@H](C1)O2 (single isomer, unassigned) [Compound 199, 12-(2,6-dimethylphenyl)-18-methyl-15-oxa-8λ^6-thia-1,9,11,18,25-pentaazapentacyclo[14.7.1.13,7.110,14.017,22]hexacosa-3,5,7(26),10(25),11,13-hexaene-2,8,8-trione] |  |  | < 1000 nM | +++ (+++ is >60%)
12 | Cc1cccc(C)c1-c1cc2nc(n1)NS(=O)(=O)c1cccc(c1)C(=O)N1CC3CCCN(C)C3[C@@H](C1)O2 (single isomer, unassigned) [Compound 200, 12-(2,6-dimethylphenyl)-18-methyl-15-oxa-8λ^6-thia-1,9,11,18,25-pentaazapentacyclo[14.7.1.13,7.110,14.017,22]hexacosa-3,5,7(26),10(25),11,13-hexaene-2,8,8-trione] |  |  |  | + (+ is <300%)
13 | Cc1cccc(C)c1-c1cc2nc(n1)NS(=O)(=O)c1cccc(c1)C(=O)N1CC(O2)C2CCCN(C)C2C1 (single isomer, unassigned) [Compound 201, 12-(2,6-Dimethylphenyl)-21-methyl-15-oxa-8λ^6-thia-1,9,11,21,25-pentaazapentacyclo[14.7.1.13,7.110,14.017,22]hexacosa-3,5,7(26),10(25),11,13-hexaene-2,8,8-trione] | ++ (++ is 30-60%) | 3000 to 30000 nM |  | 

The next lines start with results.

Row | Ent. A Max Activity (%) (Enteroid Assay A) | EC50 (Enteroid Assay A) | EC50 (enteroid cells incubated with test compound 18-24 hours, acute 10 μM forskolin and 300 nM N-[2,4-bis(1,1-dimethylethyl)-5-hydroxyphenyl]-1,4-dihydro-4-oxoquinoline-3-carboxamide) | SMILES | Ent. A Max Activity (%) [1]
14 | +++ (+++ is >600%) | < 1000 nM |  | Cc1cccc(C)c1-c1cc2nc(n1)NS(=O)(=O)c1cccc(c1)C(=O)N1CCN(C3CCC3(C)C)C[C@H](C1)O2 (single isomer, unassigned) [Compound 9] | 
15 | +++ (+++ is >600%) | < 1000 nM |  | Cc1cccc(C)c1-c1cc2nc(n1)NS(=O)(=O)c1cccc(c1)C(=O)N1CCN(C3CCC3(C)C)C[C@H](C1)O2 (single isomer, unassigned) [Compound 10] | 
16 | +++ (+++ is >600%) | < 1000 nM |  | Cc1cccc(C)c1-c1cc2nc(n1)NS(=O)(=O)c1cccc(c1)C(=O)N1CCN(C3CCC(C)(C)C3)C[C@H](C1)O2 (single isomer, unassigned) [Compound 36] | 
17 | +++ (+++ is >600%) | < 1000 nM |  | Cc1cccc(C)c1-c1cc2nc(n1)NS(=O)(=O)c1cccc(c1)C(=O)N1CCN(C3CCC(C)(C)C3)C[C@H](C1)O2 (single isomer, unassigned) [Compound 37] | 
18 | +++ (+++ is >600%) | < 1000 nM |  | Cc1cccc(C)c1-c1cc2nc(n1)NS(=O)(=O)c1cccc(c1)C(=O)N1CCN([C@H]3CC[C@@H](F)CC3)C[C@H](C1)O2 (single isomer, unassigned) [Compound 38] | 
19 | +++ (+++ is >600%) | < 1000 nM |  | Cc1cccc(C)c1-c1cc2nc(n1)NS(=O)(=O)c1cccc(c1)C(=O)N1CCN(CCC3(C(F)(F)F)CC3)CC(C1)O2 (single isomer, unassigned) [Compound 69, 12-(2,6-Dimethylphenyl)-18-{2-[1-(trifluoromethyl)cyclopropyl]ethyl}-15-oxa-8λ^6-thia-1,9,11,18,22-pentaazatetracyclo[14.4.1.13,7.110,14]tricosa-3(23),4,6,10(22),11,13-hexaene-2,8,8-trione] | 
20 | +++ (+++ is >600%) | < 1000 nM |  | Cc1cccc(C)c1-c1cc2nc(n1)NS(=O)(=O)c1cccc(c1)C(=O)N1CCN([C@@H](C)C(C)(C)C)C[C@H](C1)O2 (single isomer, unassigned) [Compound 72] | 
21 | +++ (+++ is >600%) | < 1000 nM |  | Cc1cccc(C)c1-c1cc2nc(n1)NS(=O)(=O)c1cccc(c1)C(=O)N1CCN([C@@H](C)C(C)(C)C)C[C@H](C1)O2 (single isomer, unassigned) [Compound 73] | 
22 | ++ (++ is 30-60%) | < 1000 nM |  | Cc1cccc(C)c1-c1cc2nc(n1)NS(=O)(=O)c1cccc(c1)C(=O)N1CCN(Cc3ccccc3)C[C@H](O2)[C@@H]1CC(C)C (single isomer, unassigned) [Compound 87] | 
